Reference: US20040248913A1, “(Pyridinyl and pyrimidyl) trienoic acid derivatives as retinoid x receptor modulators” (priority 2001, published 2004)

What was measured:
[1] = tested on: RXRα:RAR heterodimer; experiment: RXR:RAR heterodimer cotransfection assay in CV-1 cells; assay type: cell-based, human; conditions: alone
Excerpt: In the co-transfection assay, cloned cDNA for one or more IRs (e.g., human RARα, RXRα, or PPARγ), alone or in combination (i.e. for heterodimer assays) under the control of a constitutive promoter (e.g., the SV 40, RSV or CMV promoter) is introduced by transfection (a procedure to introduce exogenous genes into cells) into a background cell substantially devoid of endogenous IRs. These introduced gene(s) direct the recipient cells to make the IR protein(s) of interest. A further gene is also introduced (co-transfected) into the same cells in conjunction with the IR gene(s). This further gene, comprising the cDNA for a reporter protein, such as firefly luciferase (LUC), controlled by an appropriate hormone responsive promoter containing a hormone response element (HRE). This reporter plasmid functions as a reporter for the transcriptional-modulating activity of the target IR(s). Thus, the reporter acts as a surrogate for the products (mRNA then protein) normally expressed by a gene under control of the target receptor(s) and their native hormone(s).
Compounds of the present invention were also tested for the ability to synergize with an RAR or PPARγ agonist in the context of an RXR heterodimer. […] Efficacy of the compounds of the present invention in the agonist and synergy assays was calculated as the maximum response obtained over the range of the dose response curve relative to the maximum response obtained by the reference agonist. Antagonist efficacy was determined as a function (%) of maximal inhibition.
RAR suppresses RXR ligand binding and transactivation of typical RXR agonists via allosteric interactions. […] However, when RAR is occupied, typical RXR agonists activate the heterodimer. […] To examine the effects of the compounds of the present invention on the transcriptional properties of the RXR:RAR heterodimer, a heterodimer cotransfection assay as described above was employed.

[2] = tested on: rodent models of NIDDM; experiment: Rodent models of NIDDM / Type II Diabetes; assay type: in vivo
Excerpt: (§1) Rodents that are genetically defective in the leptin pathway are commonly used as animal models of non-insulin dependant diabetes mellitus (NIDDM). db/db mice and ZDF rats develop frank diabetes that progresses to include β-cell failure and the accompanying precipitous drop in plasma insulin levels. […] All three rodent models were used to examine the efficacy of oral dosing with compounds of the invention on diabetes, insulin sensitivity, food consumption and body weight gain.
(§2) Mice (obtained from Jackson Laboratory), ZDF rats (obtained from Genetic Models Inc.) and fa/fa rats (obtained from either Charles River, or Harlan) are maintained on 12-hour light/dark cycle. Mice (age 28-42 days) are caged in groups of 5-6. Rats (age 7 weeks) are housed individually. All animals are allowed ad libitum access to water and food (Purina 5015 for mice and 5008 for rats). Compounds are administered at the specified doses by oral gavage on the morning of each day of any experiment. Blood samples are obtained 3 hours after dosing from fed animals under anesthesia and collected into heparinized capillary tubes from the tail vein.
On the other hand, full antagonists have no effect on glucose, triglycerides or the thyroid status in these same model systems. We have identified a specific subset of rexinoids that maintain the desirable insulin sensitizing activity and eliminate both the suppression of the thyroid axis and triglyceride elevations. These compounds are heterodimer selective modulators of RXR activity. They bind to RXR with high affinity (generally Ki<50 nM) and produce potent synergistic activation of the RXR:PPARγ heterodimer. This synergistic activation of PPARγ in vitro is presumably a major determinant of the antidiabetic efficacy of compounds in vivo.

[3] = tested on: mice transgenic for the human apolipoprotein A-I gene; experiment: Transgenic mice carrying the human apo A-I gene; assay type: in vivo, mouse
Excerpt: Mice transgenic for the human apolipoprotein A-I gene (obtained from Jackson Laboratory) are used to evaluate PPARγ mediated effects on high density lipoprotein (HDL) cholesterol. The mice are handled as described above for db/db mice, except that they are fed Purina 5001.

[4] = tested on: db/db mice; experiment: db/db mice, daily oral gavage; assay type: in vivo, mouse; conditions: 7 week old db/db mice
Excerpt: as §1, §2

`CC1=C(/C=C/C(C)=C/C=C/C(C)=C/C(=O)O)C(C)(C)CCC1` [ATRA, all-trans retinoic acid, reference compound] was tested, and the “RXR:RAR agonist activity / transactivation alone (in words)” value [1] was “strongly transactivate”.
For `C/C(=C\c1ccc(C(=O)O)cc1)c1ccc2c(c1)C(C)(C)CCC2(C)C` [TTNPB, (E)-4-[2-(5,6,7,8-tetrahydro-5,5,8,8-tetramethyl-2-naphthalenyl)-1-propenyl]benzoic acid, reference compound], the “RXR:RAR agonist activity / transactivation alone (in words)” value [1] was “strongly transactivate”.
In the case of `Cc1cc2c(cc1C1(c3ccc(C(=O)O)cn3)CC1)C(C)(C)CCC2(C)C` [LG100268], the Blood glucose levels [2] was “lower blood glucose levels”, the Insulin sensitizing activity [2] was “efficacious insulin sensitizers” and the Thyroid hormone axis [2] was “suppress the thyroid hormone axis”. For the same compound, the Triglycerides [2] was “raise triglycerides” and the Triglycerides [3] was “raises triglycerides”.
For `CN(C)C(=N)N=C(N)N` [metformin], the Plasma glucose ([4]; 300 mg/kg by daily oral gavage) was “lowers plasma glucose” and the “Efficacy on plasma glucose over time” value ([4]; 300 mg/kg daily, 3 weeks subsequent to first week) was “efficacy of metformin decreases”.
